{
  "source": "paper PMC9137479",
  "about": "“The Class A β-Lactamase Produced by Burkholderia Species Compromises the Potency of Tebipenem against a Panel of Isolates from the United States” (Antibiotics, 2022)",
  "key": {"[1]": {"biological_target": "T1, AmpC1 (Burkholderia multivorans, UniProt A0A0H3KQ39)", "T1 construct": "gene ampC; purified class C beta-lactamase", "T1 sequence (A0A0H3KQ39 entry or part of it)": "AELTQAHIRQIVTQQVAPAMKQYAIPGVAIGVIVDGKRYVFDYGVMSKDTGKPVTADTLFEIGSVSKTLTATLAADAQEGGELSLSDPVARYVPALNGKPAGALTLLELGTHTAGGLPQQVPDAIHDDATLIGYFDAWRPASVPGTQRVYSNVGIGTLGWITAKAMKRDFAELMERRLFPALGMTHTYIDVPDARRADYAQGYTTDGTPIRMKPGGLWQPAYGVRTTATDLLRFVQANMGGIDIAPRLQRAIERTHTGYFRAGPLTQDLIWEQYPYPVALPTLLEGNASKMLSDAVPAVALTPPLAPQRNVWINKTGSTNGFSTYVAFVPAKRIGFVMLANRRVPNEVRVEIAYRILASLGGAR", "test": "steady-state inhibition kinetics", "format": "biochemical", "conditions": "covalent acyl-enzyme; not hydrolysed; 10 mM PBS pH 7.4, ~25 °C (stated for hydrolysis curves)", "description": "steady-state inhibition kinetics on AmpC1"}, "[2]": {"biological_target": "T2, PenA1 (Burkholderia multivorans, UniProt A0A0H3KN52)", "T2 construct": "gene ampC; purified class A beta-lactamase", "T2 sequence (A0A0H3KN52 entry or part of it)": "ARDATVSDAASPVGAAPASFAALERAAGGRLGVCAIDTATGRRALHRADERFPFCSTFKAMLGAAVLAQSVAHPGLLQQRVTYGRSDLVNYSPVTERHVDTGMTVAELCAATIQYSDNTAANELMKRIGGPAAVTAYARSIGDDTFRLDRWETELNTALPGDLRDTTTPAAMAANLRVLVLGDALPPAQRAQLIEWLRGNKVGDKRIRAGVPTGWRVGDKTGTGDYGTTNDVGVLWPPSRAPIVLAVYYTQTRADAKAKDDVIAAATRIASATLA", "test": "steady-state inhibition kinetics", "format": "biochemical", "conditions": "read-out: PenA1; covalent acyl-enzyme; slow substrate; partition ratio method at 15 min; 10 mM PBS pH 7.4, ~25 °C (stated for hydrolysis curves)", "description": "steady-state inhibition kinetics on PenA1"}},
  "data": [
    {"smiles": "C[C@@H](O)[C@H]1C(=O)N2C(C(=O)O)=C(SC3CN(C4=NCCS4)C3)[C@H](C)[C@H]12", "note": "[tebipenem]", "values": [
      {"measurement": "Ki", "setting": "[1]", "result": "22 ± 2", "unit": "µM"},
      {"measurement": "Ki", "setting": "[2]", "result": "4.7 ± 0.5", "unit": "µM"}
    ]}
  ]
}
